{"source": "paper PMC6906348", "about": "(Therapeutic Advances in Medical Oncology, 2019)", "origin": "cited, not measured here", "key": {"[1]": {"system": "patients with advanced HCC", "conditions": "cited from earlier work"}, "[2]": {"system": "patients with unresectable advanced HCC", "conditions": "cited from earlier work"}, "[3]": {"system": "patients with unresectable advanced HCC", "conditions": "cited from earlier work", "remark": "listed apart in the source"}, "[4]": {"system": "Asian patients with advanced HCC", "conditions": "cited from earlier work"}, "[5]": {"system": "patients progressing on or after sorafenib treatment (HCC)", "conditions": "cited from earlier work"}, "[6]": {"system": "patients with MET-high HCC", "conditions": "MET-high HCC defined by IHC ⩾2+ in ⩾50% of tumor cells; cited from earlier work"}}, "note": "Like-named read-outs stand apart in the source and are kept apart here."}
{"compound": "nivolumab", "values": [{"measurement": "overall response rate", "setting": "[1]; all patients", "value": 20, "unit": "%"}, {"measurement": "overall response rate", "setting": "[1]; sorafenib-treated patients", "value": 14, "unit": "%"}]}
{"compound": "CNC(=O)c1cc(Oc2ccc(NC(=O)Nc3ccc(Cl)c(C(F)(F)F)c3)cc2)ccn1", "note": "[sorafenib]", "values": [{"measurement": "hazard ratio (HR), overall survival", "setting": "[2]; sorafenib group versus placebo", "value": 0.69}, {"measurement": "overall response rate", "setting": "[2]; versus 1% for placebo", "value": 2, "unit": "%"}, {"measurement": "median time to progression (TTP)", "setting": "[2]; versus 2.8 months for placebo", "value": 5.5, "unit": "months"}, {"measurement": "median overall survival", "setting": "[2]; versus 7.9 months for placebo", "value": 10.7, "unit": "months"}, {"measurement": "disease control rate", "setting": "[2]; versus 32% for placebo", "value": 43, "unit": "%"}, {"measurement": "HR, overall survival", "setting": "[3]; sorafenib group versus placebo", "value": 0.68}, {"measurement": "median overall survival", "setting": "[3]; versus 4.2 months for placebo", "value": 6.5, "unit": "months"}]}
{"compound": "CN1CCC(COc2cnc(-c3cccc(Cn4nc(-c5cccc(C#N)c5)ccc4=O)c3)nc2)CC1", "note": "[tepotinib]", "values": [{"measurement": "MET-positive patients with partial responses", "setting": "[4]; MET-positive defined as ⩾50% tumor IHC 2+/3+", "value": "2/7"}, {"measurement": "patients with partial responses", "setting": "[4]; unselected patients, 2/27", "value": 7.4, "unit": "%"}, {"measurement": "disease control rate", "setting": "[4]; unselected patients", "value": 37, "unit": "%"}]}
{"compound": "CNC(=O)c1cc(Oc2ccc(NC(=O)Nc3ccc(Cl)c(C(F)(F)F)c3)c(F)c2)ccn1", "note": "[regorafenib]", "values": [{"measurement": "overall response rate", "setting": "[5]; versus 4% in the placebo arm", "value": 11, "unit": "%"}, {"measurement": "overall survival", "setting": "[5]; versus 7.8 months for placebo", "value": 10.6, "unit": "months"}]}
{"compound": "O=C1NC(=O)[C@@H](c2cn3c4c(cccc24)CCC3)[C@@H]1c1c[nH]c2ccccc12", "note": "[tivantinib]", "values": [{"measurement": "study outcome", "setting": "[6]", "value": "negative"}]}
